# Experimental data published in patent publication US8138168B1 (Takeda Pharmaceutical Company Limited, priority 2007, dated 2012).
# pIC50: −log10 of the molar value.
# Biological target: T1, Recombinant human renin (Homo sapiens, UniProt P00797)
# T1 construct: isolate the active form (residues 67-406); made in house; host or cells: FreeStyle 293-F cells (transient expression of pcDNA3.1(+)/hREN)
# T1 sequence (P00797 67-406): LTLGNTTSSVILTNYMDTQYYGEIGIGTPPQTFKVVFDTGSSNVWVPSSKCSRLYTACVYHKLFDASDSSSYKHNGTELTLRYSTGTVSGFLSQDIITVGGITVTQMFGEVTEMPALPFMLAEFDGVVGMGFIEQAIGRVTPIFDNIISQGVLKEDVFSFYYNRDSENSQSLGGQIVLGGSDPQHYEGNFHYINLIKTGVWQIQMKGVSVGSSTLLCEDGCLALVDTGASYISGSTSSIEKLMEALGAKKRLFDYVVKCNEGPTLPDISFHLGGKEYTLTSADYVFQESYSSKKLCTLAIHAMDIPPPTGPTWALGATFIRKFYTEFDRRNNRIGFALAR
# Test: In vitro enzymatic activity assay of renin inhibitors (fluorogenic peptide substrate)
# Format: biochemical
# Details: read-out: IC50 of Exemplified Compounds Against Renin
# Procedure, shortened: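 Recombinant human renin (3 nM final) pre-incubated 10 min at 37 °C with compounds in pH 7.4 Hepes/EDTA/DTT/0.1 mg/mL BSA/Brij35 buffer (optionally plus 2% BSA), 5% DMSO final; fluorogenic QXL520/HiLyteFluo488 peptide substrate added.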
row,SMILES,pIC50
1,"COCCCn1c([C@@H]2CCCN(C(=O)C[C@H](N)CNC(=O)c3ccc(-c4ccccc4)o3)C2)nc2ccccc21 [Compound 251, N-((S)-2-amino-4-((R)-3-(1-(3-methoxypropyl)-1H-benzo[d]imidazol-2-yl)piperidin-1-yl)-4-oxobutyl)-5-phenylfuran-2-carboxamide]",> 7.00
2,"COCCCn1c([C@@H]2CCCN(C(=O)C[C@H](N)Cc3ccc(-c4c(C)noc4C)cc3)C2)nc2ccccc21 [Compound 166, (R)-3-amino-4-(4-(3,5-dimethylisoxazol-4-yl)phenyl)-1-((R)-3-(1-(3-methoxypropyl)-1H-benzo[d]imidazol-2-yl)piperidin-1-yl)butan-1-one]",6.00 to 7.00
3,"COCCCn1c([C@@H]2CCCN(C(=O)C[C@H](N)Cc3ccc(C(C)(C)C)cc3)C2)nc2ccccc21 [Compound 90, (R)-3-amino-4-(4-tert-butylphenyl)-1((R)-3-(1-(3-methoxypropyl)-1H-benzo[d]imidazol-2-yl)piperidin-1-yl)butan-1-one]",> 7.00
4,"COCCCn1c([C@@H]2CCCN(C(=O)C[C@H](N)Cc3ccc(-c4ccc(-n5c(C)n[nH]c5=O)cc4)cc3)C2)nc2ccccc21 [Compound 206, 4-(4′-((R)-2-amino-4-((R)-3-(1-(3-methoxypropyl)-1H-benzo[d]imidazol-2-yl)piperidin-1-yl)-4-oxobutyl)biphenyl-4-yl)-3-methyl-1H-1,2,4-triazol-5(4H)-one]",> 7.00
5,"COCCCn1c([C@@H]2CCCN(C(=O)C[C@H](N)Cc3ccc(-c4ccccc4C)cc3)C2)nc2ccccc21 [Compound 157, (R)-3-amino-1-((R)-3-(1-(3-methoxypropyl)-1H-benzo[d]imidazol-2-yl)piperidin-1-yl)-4-(2′-methylbiphenyl-4-yl)butan-1-one]",> 7.00
6,"COCCCn1c([C@@H]2CCCN(C(=O)C[C@H](N)Cc3ccc(-c4ccccc4)cc3)C2)nc2c(Cl)cccc21 [Compound 118, (R)-3-amino-4-(biphenyl-4-yl)-1-((R)-3-(4-chloro-1-(3-methoxypropyl)-1H-benzo[d]imidazol-2-yl)piperidin-1-yl)butan-1-one]",> 7.00
7,"COCCCn1c([C@@H]2CCCN(C(=O)C[C@H](N)Cc3ccc(-c4ccncc4)cc3)C2)nc2ccccc21 [Compound 126, (R)-3-amino-1-((R)-3-(1-(3-methoxypropyl)-1H-benzo[d]imidazol-2-yl)piperidin-1-yl)-4-(4-(pyridin-4-yl)phenyl)butan-1-one]",> 7.00
8,"COCCCn1c(C2CCCN(C(=O)C[C@@H](N)Cc3ccc(Cl)cc3)C2)nc2ccccc21 (stereo partly drawn) [Compound 67, (3S)-3-amino-4-(4-chlorophenyl)-1-(3-(1-(3-methoxypropyl)-1H-benzo[d]imidazol-2-yl)piperidin-1-yl)butan-1-one]",< 6.00
9,"COCCCn1c(C2CCCN(C(=O)C[C@H](N)Cc3ccc4ccccc4c3)C2)nc2cccc(C(=O)OC)c21 (stereo partly drawn) [Compound 112, methyl 2-(1-((R)-3-amino-4-(naphthalen-2-yl)butanoyl)piperidin-3-yl)-1-(3-methoxypropyl)-1H-benzo[d]imidazole-7-carboxylate]",< 6.00
10,"COCCCn1c([C@@H]2CCCN(C(=O)C[C@H](N)Cc3ccc4ccccc4c3)C2)nc2ccc(OC)cc21 [Compound 110, (R)-3-amino-1((R)-3-(6-methoxy-1-(3-methoxypropyl)-1H-benzo[d]imidazol-2-yl)piperidin-1-yl)-4-(naphthalen-2-yl)butan-1-one]",6.00 to 7.00
11,"COCCCn1c([C@@H]2CCCN(C(=O)C[C@H](N)Cc3ccc(-c4csc(C(C)C)n4)cc3)C2)nc2ccccc21 [Compound 202, (R)-3-amino-4-(4-(2-isopropylthiazol-4-yl)phenyl)-1-((R)-3-(1-(3-methoxypropyl)-1H-benzo[d]imidazol-2-yl)piperidin-1-yl)butan-1-one]",> 7.00
12,"COCCCn1c([C@@H]2CCCN(C(=O)C[C@H](N)Cc3ccc(-c4ccc(NC(=O)COC)cc4)cc3)C2)nc2ccccc21 [Compound 197, N-(4′-((R)-2-amino-4-((R)-3-(1-(3-methoxypropyl)-1H-benzo[d]imidazol-2-yl)piperidin-1-yl)-4-oxobutyl)biphenyl-4-yl)-2-methoxyacetamide]",> 7.00
13,"COCCCn1c([C@@H]2CCCN(C(=O)C[C@H](N)Cc3ccc(-c4c[nH]c(=O)[nH]c4=O)cc3)C2)nc2ccccc21 [Compound 169, 5-(4-((R)-2-amino-4-((R)-3-(1-(3-methoxypropyl)-1H-benzo[d]imidazol-2-yl)piperidin-1-yl)-4-oxobutyl)phenyl)pyrimidine-2,4(1H,3H)-dione]",> 7.00
14,"COCCCn1c([C@@H]2CCCN(C(=O)C[C@H](N)Cc3ccc(-c4ccc(C(=O)N[C@H](C)CO)cc4)cc3)C2)nc2ccccc21 [Compound 186, 4′-((R)-2-amino-4-((R)-3-(1-(3-methoxypropyl)-1H-benzo[d]imidazol-2-yl)piperidin-1-yl)-4-oxobutyl)-N-((R)-1-hydroxypropan-2-yl)biphenyl-4-carboxamide]",> 7.00
15,"COCCCn1c([C@@H]2CCCN(C(=O)C[C@H](N)Cc3ccc(-c4cccnc4)cc3)C2)nc2ccccc21 [Compound 125, (R)-3-amino-1-((R)-3-(1-(3-methoxypropyl)-1H-benzo[d]imidazol-2-yl)piperidin-1-yl)-4-(4-(pyridin-3-yl)phenyl)butan-1-one]",> 7.00
16,"COCCCn1c([C@@H]2CCCN(C(=O)C[C@H](N)Cc3ccc(-c4ccccc4)cc3)C2)nc2ccccc21 [Compound 124, (R)-3-amino-4-(biphenyl-4-yl)-1-((R)-3-(1-(3-methoxypropyl)-1H-benzo[d]imidazol-2-yl)piperidin-1-yl)butan-1-one]",> 7.00

# The next lines start with the values.
row,pIC50,SMILES
1,6.00 to 7.00,"COCCCn1c([C@@H]2CCCN(C(=O)C[C@H](N)CNC(=O)c3ccc(-c4ccccc4[N+](=O)[O-])o3)C2)nc2ccccc21 [Compound 275, N-((S)-2-amino-4-((R)-3-(1-(3-methoxypropyl)-1H-benzo[d]imidazol-2-yl)piperidin-1-yl)-4-oxobutyl)-5-(2-nitrophenyl)furan-2-carboxamide]"
2,6.00 to 7.00,"CC(=O)Nc1ccc(-c2ccc(C[C@@H](N)CC(=O)N3CCC[C@@H](c4nc5ccccc5n4CCC(N)=O)C3)cc2)cc1 [Compound 486, 3-(2-((R)-1-((R)-4-(4′-acetamidobiphenyl-4-yl)-3-aminobutanoyl)piperidin-3-yl)-1H-benzo[d]imidazol-1-yl)propanamide]"
3,6.00 to 7.00,"CCOC(=O)c1ccc(-c2ccc(C(=O)NC[C@@H](N)CC(=O)N3CCC[C@@H](c4nc5ccccc5n4CCCOC)C3)o2)cc1 [Compound 294, ethyl 4-(5-((S)-2-amino-4-((R)-3-(1-(3-methoxypropyl)-1H-benzo[d]imidazol-2-yl)piperidin-1-yl)-4-oxobutylcarbamoyl)furan-2-yl)benzoate]"
4,> 7.00,"COCCCn1c([C@@H]2CCCN(C(=O)C[C@H](N)Cc3ccc(-c4ccc5[nH]ncc5c4)cc3)C2)nc2c(C)cccc21 [Compound 499, (R)-4-(4-(1H-indazol-5-yl)phenyl)-3-amino-1-((R)-3-(1-(3-methoxypropyl)-4-methyl-1H-benzo[d]imidazol-2-yl)piperidin-1-yl)butan-1-one]"
5,6.00 to 7.00,"NC(=O)CCn1c([C@@H]2CCCN(C(=O)C[C@H](N)Cc3ccc(-c4ccc(N)nc4)cc3)C2)nc2ccccc21 [Compound 480, 3-(2-((R)-1-((R)-3-amino-4-(4-(6-aminopyridin-3-yl)phenyl)butanoyl)piperidin-3-yl)-1H-benzo[d]imidazol-1-yl)propanamide]"
6,< 6.00,"COCCCn1c([C@@H]2CCCN(C(=O)[C@@H]3CN(C(=O)Nc4ccc(Cl)cc4)C[C@H]3N)C2)nc2ccccc21 [Compound 388, (3S,4R)-3-amino-N-(4-chlorophenyl)-4-((R)-3-(1-(3-methoxypropyl)-1H-benzo[d]imidazol-2-yl)piperidine-l-carbonyl)pyrrolidine-1-carboxamide]"
7,6.00 to 7.00,"COCCCn1c([C@@H]2CCCN(C(=O)C[C@H](N)CNC(=O)c3c(Cl)cccc3Cl)C2)nc2ccccc21 [Compound 289, N-((S)-2-amino-4-((R)-3-(1-(3-methoxypropyl)-1H-benzo[d]imidazol-2-yl)piperidin-1-yl)-4-oxobutyl)-2,6-dichlorobenzamide]"
8,< 6.00,"COCCCn1c([C@@H]2CCCN(C(=O)[C@@H]3CN(C(=O)Nc4ccc(OC)cc4)C[C@H]3N)C2)nc2ccccc21 [Compound 415, (3S,4R)-3-amino-N-(4-methoxyphenyl)-4-((R)-3-(1-(3-methoxypropyl)-1H-benzo[d]imidazol-2-yl)piperidine-1-carbonyl)pyrrolidine-1-carboxamide]"
9,< 6.00,"COCCCn1c([C@@H]2CCCN(C(=O)C[C@H](N)CNC(=O)C3CCCC3)C2)nc2ccccc21 [Compound 331, N-((S)-2-amino-4-((R)-3-(1-(3-methoxypropyl)-1H-benzo[d]imidazol-2-yl)piperidin-1-yl)-4-oxobutyl)cyclopentanecarboxamide]"
10,6.00 to 7.00,"COCCCn1c([C@@H]2CCCN(C(=O)[C@@H]3CN(S(=O)(=O)c4ccc(N5CCCC5=O)cc4)C[C@H]3N)C2)nc2ccccc21 [Compound 382, 1-(4-((3S,4R)-3-amino-4-((R)-3-(1-(3-methoxypropyl)-1H-benzo[d]imidazol-2-yl)piperidine-1-carbonyl)pyrrolidin-1-ylsulfonyl)phenyl)pyrrolidin-2-one]"
